Assay results: PMC12040169 (PLOS Biology, 2025)

Assay: in vitro
Conditions: human, hela cells, % viability

`O=C(O)c1ccccc1C(=O)Nc1cccc(-c2noc(-c3cccc(F)c3)n2)c1` [CBK299813] showed a viability at 28.5 h, 10 µM of 92%.

`O=C(NC1CCCC1)c1ccc(=O)[nH]c1` [CBK058093] showed a viability at 28.5 h, 10 µM of 104%.

For `CC(C)(C)NC(=O)CN1CCC(c2ccccc2F)CC1` [CBK283499], the viability at 28.5 h, 10 µM was 92.1%.

`COC(=O)c1sc(NC(=O)C2CCCO2)c(C(=O)OC)c1C` (stereo not shown) [CBK262622] gave a viability at 28.5 h, 10 µM of 88%.

With `Cc1csc(NC(=O)c2cccc(S(=O)(=O)NCC3CCCO3)c2)n1` (stereo not shown) [CBK305017] the viability at 28.5 h, 10 µM was 96.7%.

`Cc1ccccc1C(=O)N1C2CCC1CC(O)(Cn1ccnc1C)C2` (stereo not shown) [CBK282740] gave a viability at 28.5 h, 10 µM of 90.1%.

`Cc1ccc(S(=O)(=O)NCC(=O)Nc2ccc(Cl)cn2)cc1` [CBK091357] showed a viability at 28.5 h, 10 µM of 105%.

Compound `Cc1cc(=O)n(CC(=O)N2CCC3(CCCN(C(C)C)C3=O)C2)nc1C` (stereo not shown) [CBK307482] has a viability at 28.5 h, 10 µM of 90%.

`Cc1ccc(-c2csc3ncn(Cc4ccccc4C)c(=O)c23)cc1C` [CBK099921] gave a viability at 28.5 h, 10 µM of 104%.

Work on `COc1ccc(-c2nc3ccccc3o2)cc1NC(=O)C(C)Oc1ccc(Cl)cc1Cl` (stereo not shown) [CBK266787] yielded a viability at 28.5 h, 10 µM of 76.4%.

For `CC(C)n1nnnc1SCCC(=O)N1CCN(c2ccc(F)cc2)CC1` [CBK304602], the viability at 28.5 h, 10 µM was 95.5%.

Compound `O=C(Nc1[nH]nc(O)c1Cc1c(Cl)cccc1Cl)C1CCCCC1` [CBK084558] has a viability at 28.5 h, 10 µM of 92.9%.

Work on `Cc1ccc2nc(NCCC(=O)O)nc(-c3ccccc3)c2c1` [CBK266537] yielded a viability at 28.5 h, 10 µM of 97.4%.

Compound `O=C(O)c1nccnc1-c1ccc(COc2ccccc2)cc1` [CBK050806] has a viability at 28.5 h, 10 µM of 90.2%.

`COc1ccc(-c2nc(NC(=O)COc3ccc(C)c4c3CCC4)cnc2-c2ccc(F)cc2)cc1` [CBK036990] showed a viability at 28.5 h, 10 µM of 88.7%.

In the case of `COc1cc(NS(=O)(=O)c2ccc(NC(=O)c3ccc(C)o3)cc2)nc(OC)n1` [CBK268182], the viability at 28.5 h, 10 µM is reported as 91.6%.

In the case of `COc1ccc(C)cc1C1(CNC(=O)C2CC(O)CN2)CCOCC1` (stereo not shown) [CBK304162], the viability at 28.5 h, 10 µM is reported as 92%.

`CC1CCCCN1C(=O)CCn1c(C(F)F)cc2cccnc21` (stereo not shown) [CBK285024] gave a viability at 28.5 h, 10 µM of 89.5%.

`CCN(CC)c1ccc(NC(=O)c2cccc(OC)c2OC)c(C)c1` [CBK097801] gave a viability at 28.5 h, 10 µM of 92.2%.

In the case of `O=S(=O)(c1ccccc1)n1cc2c3c(cccc31)CN(CCO)C2` [CBK156333T], the viability at 28.5 h, 10 µM is reported as 106%.

Compound `COc1ccccc1NC(=O)C1C2NC(=S)NC1(C)Oc1c(OC)cccc12` (stereo not shown) [CBK269013] has a viability at 28.5 h, 10 µM of 107%.

`CCNC(=O)c1ccccc1NC(=O)C(C)Oc1ccccc1` (stereo not shown) [CBK269933] gave a viability at 28.5 h, 10 µM of 85.8%.

For `CCn1c(C)nc2cc(NC(=O)Cn3cccc(C(=O)NC4CCCCC4)c3=O)ccc21` [CBK286042], the viability at 28.5 h, 10 µM was 92.9%.

Work on `CC(C)c1n[nH]c(=S)n1C1CCc2ccccc21` (stereo not shown) [CBK288374] yielded a viability at 28.5 h, 10 µM of 87.1%.

`CC(SCc1ccccc1)C(=O)NCc1ccnc(OCC(F)(F)F)c1` (stereo not shown) [CBK298325] showed a viability at 28.5 h, 10 µM of 111%.

Work on `Fc1ccccc1CN1CCN(c2nccnc2OCCN2CCOCC2)CC1` [CBK082886T] yielded a viability at 28.5 h, 10 µM of 102%.

`CC(NC(=O)Cc1ccccc1F)c1nc2cccnc2n1C(C)C` (stereo not shown) [CBK283829] gave a viability at 28.5 h, 10 µM of 90.8%.

In the case of `C=CCN(Cc1nc(-c2ccccc2)no1)C(=O)Nc1ccc(C)cc1` [CBK269859], the viability at 28.5 h, 10 µM is reported as 103%.

Work on `COc1ccc([C@@]23CC[C@@H](NC(=O)Nc4cccc(Br)c4)C[C@@H]2N(C)CC3)cc1OC` [CBK038225T] yielded a viability at 28.5 h, 10 µM of 91.4%.

In the case of `COc1ccc(C(=O)O)cc1N1C(=O)CC(c2c(C)nn(-c3ccccc3)c2N)C1=O` (stereo not shown) [CBK291120], the viability at 28.5 h, 10 µM is reported as 112%.

`Cc1cc(NC(=O)CCCc2ccccc2)nc2c1c(=O)oc1ccccc12` [CBK291204] gave a viability at 28.5 h, 10 µM of 109%.

Compound `COc1ccc(-c2cc(-c3ccccc3)nc(N/N=C/c3ccc(O)c(C)c3O)n2)cc1` [CBK261721] has a viability at 28.5 h, 10 µM of 101%.

`CCOc1ccc(S(=O)(=O)NC(C)C(=O)O)cc1C` (stereo not shown) [CBK270178] showed a viability at 28.5 h, 10 µM of 114%.

Work on `CSCCCNC(=O)N1CCN(C2CCN(C)CC2)CC1` [CBK155882] yielded a viability at 28.5 h, 10 µM of 101%.

Compound `COCc1ccc(C(=O)N2CCC(Cc3ccccc3-c3cccs3)(C(N)=O)CC2)cc1` [CBK286276] has a viability at 28.5 h, 10 µM of 102%.

`CCN(C#N)c1nc(NC)nc(OC)n1` [CBK265697] showed a viability at 28.5 h, 10 µM of 98.1%.

With `COc1ccccc1OCC(O)CN1CCN(C(=O)c2ccccc2)CC1` (stereo not shown) [CBK074386C] the viability at 28.5 h, 10 µM was 111%.

`Cc1cn(CC(=O)N2CCCC3(CCN(C(=O)c4cc(F)c(F)cc4F)C3)C2)c(=O)[nH]c1=O` (stereo not shown) [CBK131561] showed a viability at 28.5 h, 10 µM of 101%.

For `c1cnc2[nH]c(C3CCOCC3)c(CN3CCSCC3)c2c1` [CBK284688], the viability at 28.5 h, 10 µM was 89.5%.

Compound `CCOC(=O)CCCNC(=O)N1CCN(c2ccccc2)CC1` [CBK155209] has a viability at 28.5 h, 10 µM of 94.6%.

`c1ccc(C(Oc2nccnc2-c2cccs2)c2ccccc2)cc1` [CBK107061] showed a viability at 28.5 h, 10 µM of 112%.

`CC(C)NC(=O)N[C@H]1CC[C@]2(CC1)CC(=O)c1ccccc1O2` [CBK283389] gave a viability at 28.5 h, 10 µM of 111%.

Work on `O=C(Nc1ccc(F)cc1)c1sccc1NS(=O)(=O)Cc1ccccc1` [CBK004574] yielded a viability at 28.5 h, 10 µM of 106%.

Work on `O=C(NC(C(=O)O)C12CC3CC(CC(C3)C1)C2)c1ccc([N+](=O)[O-])cc1` (stereo not shown) [CBK261405] yielded a viability at 28.5 h, 10 µM of 94.7%.

Compound `O=C(NCc1ccco1)c1ccc2c(=O)n(-c3ccccc3)c(=O)[nH]c2c1` [CBK287823] has a viability at 28.5 h, 10 µM of 83.7%.

With `O=C(NCCCN1CCc2ccccc2C1)C1CC1c1ccco1` (stereo not shown) [CBK305257] the viability at 28.5 h, 10 µM was 91.8%.

Compound `CC(=O)N1CCC2(CC1)OCc1cc(-c3ccccc3C(=O)O)ccc1O2` [CBK060975] has a viability at 28.5 h, 10 µM (bulk resorufin, single well) of 92.1%.

With `COc1ccc(S(=O)(=O)N2CCN(C(=O)c3ccc(C(C)(C)C)cc3)CC2)cc1` [CBK157251] the viability at 28.5 h, 10 µM was 111%.

For `CCc1nn(CC(=O)NC(C)(C)C)c(=O)c2cc3ccsc3n12` [CBK284183], the viability at 28.5 h, 10 µM was 105%.

Work on `CC(=O)c1cc(C(=O)Nc2cnn(Cc3ccc(F)cc3)c2)cs1` [CBK282528] yielded a viability at 28.5 h, 10 µM of 104%.

`OC(COCc1ccc2c(c1)OCO2)CN1CCN(c2ccccn2)CC1` (stereo not shown) [CBK278246C] showed a viability at 28.5 h, 10 µM of 105%.

Work on `c1cncc(CN2CCN(Cc3c[nH]c4ccccc34)CC2)c1` [CBK218281] yielded a viability at 28.5 h, 10 µM of 92.2%.

`Cn1ccnc1CN1CCC2(CC1)CC(C(=O)O)N(C(=O)C1CC1)C2` (stereo not shown) [CBK306986] showed a viability at 28.5 h, 10 µM of 88.2%.

`c1cc(CCCOc2cncc(N3CCCC3)n2)ccn1` [CBK115760] gave a viability at 28.5 h, 10 µM of 85.3%.

`O=C(O)c1cc(Cl)c2c(c1)[C@@H]1C=CC[C@@H]1[C@H](c1cccc(Br)c1)N2` [CBK077927] showed a viability at 28.5 h, 10 µM of 106%.

`CC(Oc1ccc(Br)cc1Cl)C(=O)NCCCN1CCCC1=O` (stereo not shown) [CBK268138] showed a viability at 28.5 h, 10 µM of 98.7%.

`CCOC(=O)c1c(NC(=O)CN2CCN(c3ccc(F)cc3)CC2)sc2c1CCCC2` [CBK265536] gave a viability at 28.5 h, 10 µM of 88.3%.

Work on `O=C(O)C1CCN(C(=O)Nc2ccccc2Cl)CC1` [CBK161407] yielded a viability at 28.5 h, 10 µM of 106%.

Work on `O=C(Nc1ncn(CC(=O)N2CCCCCC2)n1)c1ccsc1` [CBK304974] yielded a viability at 28.5 h, 10 µM of 99.4%.

With `CC(=O)Nc1ccc(S(=O)(=O)Nc2ccc(-c3cn4cccnc4n3)cc2)cc1` [CBK268671] the viability at 28.5 h, 10 µM was 105%.

With `O=C(c1ccccc1F)N1CCCC1c1n[nH]cc1-c1ccncc1` (stereo not shown) [CBK283428] the viability at 28.5 h, 10 µM was 87.7%.

Work on `N/C(=N/O)c1ccc(-n2cncn2)nc1` [CBK020936] yielded a viability at 28.5 h, 10 µM of 104%.

In the case of `O=C(Cc1ccc(Cl)cc1)NC(=S)Nc1ccccc1O` [CBK263905], the viability at 28.5 h, 10 µM is reported as 96.6%.

`CC(C)c1cc(C(=O)NCCN2CCc3ccccc32)n(C)n1` [CBK282685] showed a viability at 28.5 h, 10 µM of 86.7%.
